These compounds were tested against T1, HCMV polymerase (Human cytomegalovirus, UniProt P08546) (assay: HCMV polymerase scintillation proximity assay (SPA), modified version). Settings: CMV polymerase; Table 1; modified assay with 4.5 mM DTT, compounds in 100% DMSO; read-out: Antiviral Selective Polymerase IC50 Values, CMV.
T1 construct: made in house; host or cells: recombinant baculovirus-infected SF-9 cells
Type: biochemical
Description: The HCMV polymerase assay is performed using a scintillation proximity assay (SPA) as described in several references, such as N. D. Cook, et al., Pharmaceutical Manufacturing International, pages 49-53 (1992); K. Takeuchi, Laboratory Practice, September issue (1992); U.S. Pat. No. 4,568,649 (1986); which are incorporated by reference herein. Reactions are performed in 96-well plates. The assay is conducted in 100 μl volume with 5.4 mM HEPES (pH 7.5), 11.7 mM KCl, 4.5 mM MgCl2, 0.36 mg/ml BSA, and 90 nM ^3 H-dTTP. Assays are run with and without CHAPS, (3-[(3-Cholamidopropyl)-dimethylammonio]-1-propane-sulfonate) at a final concentration of 2 mM. HCMV polymerase is diluted in enzyme dilution buffer containing 50% glycerol, 250 mM NaCl, 10 mM HEPES (pH 7.5), 100 μg/ml BSA, and 0.01% sodium azide. The HCMV polymerase, which is expressed in recombinant baculovirus-infected SF-9 cells and purified according to literature procedures, is added at 10% (or 10 μl) of the final reaction volume, i.e., 100 μl. Compounds are diluted in 50% DMSO and 10 μl are added to each well. Control wells contain an equivalent concentration of DMSO. Unless noted otherwise, reactions are initiated via the addition of 6 nM biotinylated poly(dA)-oligo(dT) template/primer to reaction mixtures containing the enzyme, substrate, and compounds of interest. Plates are incubated in a 25° C. or 37° C. H2 O bath and terminated via the addition of 40 μl/reaction of 0.5 M EDTA (pH 8) per well. Reactions are terminated within the time-frame during which substrate incorporation is linear and varied depending upon the enzyme and conditions used, i.e., 30 min. for HCMV polymerase. Ten μl of streptavidin-SPA beads (20 mg/ml in PBS/10% glycerol) are added following termination of the reaction. Plates are incubated 10 min. at 37° C., then equilibrated to room temperature, and counted on a Packard Topcount. Linear regressions are performed and IC50 's are calculated using computer software.
A modified version of the above HCMV polymerase assay is performed as described above, but with the following changes: Compounds are diluted in 100% DMSO until final dilution into assay buffer. In the previous assay, compounds are diluted in 50% DMSO. 4.5 mM dithiotherotol (DTT) is added to the polymerase buffer. […] Other viral polymerase assays are performed using procedures similar to those described above.

T1 sequence (P08546 whole entry): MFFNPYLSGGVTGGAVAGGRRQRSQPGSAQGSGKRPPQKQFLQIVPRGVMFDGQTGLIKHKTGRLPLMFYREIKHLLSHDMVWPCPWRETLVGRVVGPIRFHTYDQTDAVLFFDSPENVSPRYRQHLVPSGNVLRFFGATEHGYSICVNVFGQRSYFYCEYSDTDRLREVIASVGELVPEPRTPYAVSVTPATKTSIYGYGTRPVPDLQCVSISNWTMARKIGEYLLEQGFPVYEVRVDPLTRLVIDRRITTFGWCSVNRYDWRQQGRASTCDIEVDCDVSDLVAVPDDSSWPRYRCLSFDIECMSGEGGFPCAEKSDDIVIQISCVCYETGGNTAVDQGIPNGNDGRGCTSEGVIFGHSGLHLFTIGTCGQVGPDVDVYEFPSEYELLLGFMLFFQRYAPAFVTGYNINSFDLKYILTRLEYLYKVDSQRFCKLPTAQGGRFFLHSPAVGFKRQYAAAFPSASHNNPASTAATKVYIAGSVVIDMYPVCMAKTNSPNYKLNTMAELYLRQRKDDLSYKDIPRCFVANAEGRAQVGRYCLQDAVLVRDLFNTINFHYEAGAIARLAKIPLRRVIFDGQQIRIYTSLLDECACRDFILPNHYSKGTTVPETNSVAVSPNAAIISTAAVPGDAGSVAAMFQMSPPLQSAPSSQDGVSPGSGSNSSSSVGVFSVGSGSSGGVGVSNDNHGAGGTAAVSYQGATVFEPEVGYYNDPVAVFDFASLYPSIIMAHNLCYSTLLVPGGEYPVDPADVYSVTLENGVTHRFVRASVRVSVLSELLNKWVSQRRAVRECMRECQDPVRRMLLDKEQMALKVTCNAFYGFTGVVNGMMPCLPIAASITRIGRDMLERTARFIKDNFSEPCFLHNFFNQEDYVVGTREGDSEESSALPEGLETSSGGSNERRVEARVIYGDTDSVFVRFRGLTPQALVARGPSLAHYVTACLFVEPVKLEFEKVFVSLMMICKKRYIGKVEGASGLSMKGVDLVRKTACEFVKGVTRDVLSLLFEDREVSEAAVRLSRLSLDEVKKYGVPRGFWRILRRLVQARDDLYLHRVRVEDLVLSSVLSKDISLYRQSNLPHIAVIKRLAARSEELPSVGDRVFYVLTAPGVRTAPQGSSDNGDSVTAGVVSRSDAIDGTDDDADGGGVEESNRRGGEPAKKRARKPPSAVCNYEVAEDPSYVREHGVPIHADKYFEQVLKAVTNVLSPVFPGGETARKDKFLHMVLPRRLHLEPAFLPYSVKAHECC

Row | Structure (SMILES) | IC50 [µM]
1 | O=C(NCc1ccc(Cl)cc1)c1cnc2c(Cl)ccc(C(F)(F)F)c2c1O [Example 59, 8-Chloro-N-((4-chlorophenyl)methyl)-4-hydroxy-5-trifluoro-methyl-3-quinolinecarboxamide] | 33.1
2 | COc1cc(OC)c2ncc(C(=O)NCc3ccc(Cl)cc3)c(O)c2c1 [Example 60, N-((4-Chlorophenyl)methyl)-4-hydroxy-6,8-dimethoxy-3-quinolinecarboxamide] | 4
3 | COc1cc2ncc(C(=O)NCc3ccc(Cl)cc3)c(O)c2cc1OC [Example 61, N-((4-Chlorophenyl)methyl)-4-hydroxy-6,7-dimethoxy-3-quinolinecarboxamide] | 3.1
4 | Cc1cccc2ncc(C(=O)NCc3ccc(Cl)cc3)c(O)c12 [Example 62, N-((4-Chlorophenyl)methyl)-4-hydroxy-5-methyl-3-quinoline-carboxamide] | 4.6
5 | CC(C)(C)c1ccc2ncc(C(=O)NCc3ccc(Cl)cc3)c(O)c2c1 [Example 63, N-[(4-Chlorophenyl)methyl]-6-(1,1-dimethylethyl)-4-hydroxy-3-quinolinecarboxamide] | 7
6 | O=C(NCc1ccc(Cl)cc1)c1cnc2cc3c(cc2c1O)CCC3 [Example 64, N-[(4-Chlorophenyl)methyl]-7,8-dihydro-4-hydroxy-6H-cyclopent a[g]quinoline-3-carboxamide] | 8.5
7 | CSc1cccc2c(=O)c(C(=O)NCc3ccc(Cl)cc3)c[nH]c12 [Example 65, N-[(4-Chlorophenyl)methyl]-1,4-dihydro-8-(methylthio)-4-oxo-3-quinolinecarboxamide] | 3.3
8 | O=C(NCc1ccc(Cl)cc1)c1cnc2ccc3ncsc3c2c1O [Example 66, N-[(4-Chlorophenyl)methyl]-9-hydroxythiazolo[5,4-f]quinoline-8-carboxamide] | 0.29

More lines, now with the values ahead:

Row | IC50 [µM] | Structure (SMILES)
9 | 9.4 | O=C(NCc1ccc(Cl)cc1)c1cnc2cc(C(F)(F)F)c(SCc3ccccc3)cc2c1O [Example 72, N-[(4-Chlorophenyl)methyl]-4-hydroxy-6-[(phenylmethyl)thio]-7-(trifluoromethyl)-3-quinolinecarboxamide]
10 | 5.2 | O=C(NCc1ccc(Cl)cc1)c1cnc2cccc(C(F)(F)F)c2c1O [Example 76, N-((4-Chlorophenyl)methyl)-4-hydroxy-5-trifluoromethyl-3-quinolinecarboxamide]
11 | 4 | Cc1ccccc1-c1cc(F)c2ncc(C(=O)NCc3ccc(Cl)cc3)c(O)c2c1 [Example 77, N-((4-Chlorophenyl)methyl)-8-fluoro-4-hydroxy-6-(2-methyl-phenyl)-3-quinolinecarboxamide]
12 | 0.71 | O=C(NCc1ccc(Cl)cc1)c1cnc2c(OC3CCOCC3)c(F)c(F)cc2c1O [Example 78, N-((4-Chlorophenyl)methyl)-6,7-difluoro-4-hydroxy-8-(tetrahydro-2H-pyran-4-oxy)-3-quinolinecarboxamide]
13 | 0.96 | COc1c(F)c(F)cc2c(O)c(C(=O)NCc3ccc(Cl)cc3)cnc12 [Example 79, N-((4-Chlorophenyl)methyl)-6,7-difluoro-4-hydroxy-8-methoxy-3-quinolinecarboxamide]
14 | 2.4 | COc1c(F)cc2c(O)c(C(=O)NCc3ccc(Cl)cc3)cnc2c1OC [Example 80, N-((4-Chlorophenyl)methyl)-7,8-dimethoxy-6-fluoro-4-hydroxy-3-quinolinecarboxamide]
15 | 7.8 | O=C(NCc1ccc(Cl)cc1)c1cnc2c(F)c(Oc3ccc(CO)cc3)c(F)cc2c1O [Example 81, N-((4-Chlorophenyl)methyl)-6,8-difluoro-4-hydroxy-7-(4-(hydroxymethyl)phenoxy)-3-quinolinecarboxamide]
16 | 2.5 | COc1c(F)cc2c(O)c(C(=O)NCc3ccc(Cl)cc3)cnc2c1F [Example 82, N-((4-Chlorophenyl)methyl)-6,8-difluoro-4-hydroxy-7-methoxy-3-quinolinecarboxamide]

— patent publication US6093732A, “4-hydroxyquinoline-3-carboxamides and hydrazides as antiviral agents” (Pharmacia & Upjohn Company, priority 1998, dated 2000)
